Test results taken from patent US11608323B2 (SYNGENTA LIMITED, priority 2013, dated 2023).

Columns and labels:
Type in all cases: in vivo
ABUTH [1] = experiment: Pre-emergence herbicidal activity, glasshouse pot test; conditions: rate 1000 g/Ha, evaluated after 13 days, scale 0-5
Outline: (§1)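 Seeds sown in standard soil in pots, sprayed one day later (pre-emergence) with aqueous solution from acetone/water (50:50) formulation with 0.5% Tween 20. Glasshouse at 24/16 °C day/night, 14 h light, 65% humidity, watered twice daily. Damage scored after 13 days, 0 (none) to 5 (total).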

ALOMY [2] = experiment: as above; conditions: rate 1000 g/Ha, evaluated after 13 days, scale 0-5
Outline: as §1

AMARE [3] = experiment: as above; conditions: rate 1000 g/Ha, evaluated after 13 days, scale 0-5
Outline: as §1

ECHCG [4] = experiment: as above; conditions: rate 1000 g/Ha, evaluated after 13 days, scale 0-5
Outline: as §1

SETFA [5] = experiment: as above; conditions: rate 1000 g/Ha, evaluated after 13 days, scale 0-5
Outline: as §1

ZEAMX [6] = experiment: as above; conditions: rate 1000 g/Ha, evaluated after 13 days, scale 0-5
Outline: as §1

ABUTH [7] = experiment: Post-emergence herbicidal activity, glasshouse pot test; conditions: Abutilon theophrasti; application post-emergence; rate 1000 g/Ha; evaluated after 13 days
Outline: (§2)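 Visual herbicidal injury (0 = no damage, 5 = plant killed) recorded 13 days post-treatment. Treatment consisted of a single spray onto emerged seedlings at day 8; conditions before and after were 24/16 °C, 14 h light, 65% humidity.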

ALOMY [8] = experiment: as above; conditions: Alopecurus myosuroides; application post-emergence; rate 1000 g/Ha; evaluated after 13 days
Outline: as §2

AMARE [9] = experiment: as above; conditions: Amaranthus retroflexus; application post-emergence; rate 1000 g/Ha; evaluated after 13 days
Outline: as §2

ECHCG [10] = experiment: as above; conditions: Echinochloa crus-galli; application post-emergence; rate 1000 g/Ha; evaluated after 13 days
Outline: as §2

SETFA [11] = experiment: as above; conditions: Setaria faberi; application post-emergence; rate 1000 g/Ha; evaluated after 13 days
Outline: as §2

ZEAMX [12] = experiment: as above; conditions: Zea mays; application post-emergence; rate 1000 g/Ha; evaluated after 13 days
Outline: as §2

SMILES	ABUTH damage score, application pre-emergence (ABUTH [1])	ALOMY damage score, application pre-emergence (ALOMY [2])	AMARE damage score, application pre-emergence (AMARE [3])	ECHCG damage score, application pre-emergence (ECHCG [4])	SETFA damage score, application pre-emergence (SETFA [5])	ZEAMX damage score, application pre-emergence (ZEAMX [6])	Post-emergence herbicidal activity ABUTH (damage score 0-5) (ABUTH [7])	Post-emergence herbicidal activity ALOMY (damage score 0-5) (ALOMY [8])	Post-emergence herbicidal activity AMARE (damage score 0-5) (AMARE [9])	Post-emergence herbicidal activity ECHCG (damage score 0-5) (ECHCG [10])	Post-emergence herbicidal activity SETFA (damage score 0-5) (SETFA [11])	Post-emergence herbicidal activity ZEAMX (damage score 0-5) (ZEAMX [12])
O=C1N(c2cc(C(F)(F)F)ccn2)C(O)[C@H]2CCCN12 (stereo partly drawn) [Compound A47]	5	4	5	5	4	2	5	5	5	5	5	4
CC1NC(=O)N(c2cc(C(F)(F)F)ccn2)C1O (stereo not drawn) [Compound A40]	4	2	5	3	2	2	5	4	5	4	3	1
CCOC1C(OC(=O)[C@@H]2CCCO2)N(c2cc(C(F)(F)F)ccn2)C(=O)N1C (stereo partly drawn) [Compound A100]	5	4	5	3	3	1	5	5	5	5	5	4
CC1C(O)N(c2cc(C(C)(C)C)ccn2)C(=O)N1C (single isomer, unassigned) [Compound A30]	5	4	5	5	5	2	5	5	5	5	5	3
CCOC1C(O)N(c2cc(C(F)(F)F)c(Cl)cn2)C(=O)N1C (stereo not drawn) [Compound A53]	5	4	5	4	4	2	5	5	5	5	5	3
CC(C)OC1C(O)N(c2cc(C(F)(F)F)ccn2)C(=O)N1C (stereo not drawn) [Compound A48]	5	4	5	1	3	1	5	4	5	4	4	1
CC1C(O)N(c2cc(C(F)(F)F)c(-c3ccccn3)cn2)C(=O)N1C (stereo not drawn) [Compound A9]	5	4	5	5	5	3	5	5	5	5	5	4
C=CCOC1C(O)N(c2cc(C(F)(F)F)ccn2)C(=O)N1C (stereo not drawn) [Compound A41]	5	1	5	2	2	1	5	4	5	2	4	2
COc1ncc(-c2cnc(N3C(=O)N(C)C(C)C3O)cc2C(F)(F)F)cn1 (stereo not drawn) [Compound A22]	5	4	5	5	5	3	5	5	5	5	5	5
Cc1ccc(-c2cnc(N3C(=O)N(C)C(C)C3O)cc2C(F)(F)F)cn1 (stereo not drawn) [Compound A24]	5	4	5	5	4	3	5	5	5	5	5	4
Cc1ccnc(N2C(=O)N(C)C(C)C2O)c1 (single isomer, unassigned) [Compound A27]	4	3	5	4	4	3	5	3	5	3	3	3
CCOC1C(O)N(c2cc(C(F)(F)F)c(OC)cn2)C(=O)N1C (stereo not drawn) [Compound A10]	5	4	5	5	5	3	5	5	5	5	5	4
CC1C(O)N(c2cc(C(F)(F)F)c(Cl)cn2)C(=O)N1C (stereo not drawn) [Compound A49]	5	4	5	4	4	3	5	5	5	5	5	4
